Values of other authors in patent US8828877B2, “Etching solution and trench isolation structure-formation process employing the same” (AZ Electronic Materials USA Corp., priority 2009, dated 2014).

Assays:
[1] = for δH: Hansen solubility parameter, strength of hydrogen bond; for Organic solvent δH: as given in Table 2 for the solvent of the etching solution
[2] = in water at 20° C.; "any" = can mix with water in any proportion

Compound | δH [1] | Organic solvent δH [1] | Saturation solubility [2]
CC(C)=O [Acetone] | 7.0 | 7.0 | any
C=CCOC(=O)CC(C)=O [Allyl acetoacetate] | 8.6 |  | 5.0 wt %
CCOCC [Diethyl ether] | 5.1 |  | 6.9 wt %
CCCCOCCOCCOC(C)=O [Diethyl glycol butyl ether acetate] | 8.2 |  | 6.5 wt %
CCCCOCCOCCO [Diethyl glycol monobutyl ether] | 10.6 |  | 6.5 wt %
COCCOC [Ethylene glycol dimethyl ether] |  |  | any
CCOCCOC(C)=O [Ethylene glycol monoethyl ether acetate] | 10.6 |  | 23.0 wt %
COCCOC(C)=O [Ethylene glycol monomethyl ether acetate] | 11.6 | 10.6 | any
C=C(C)C(=O)O [Methacrylic acid] | 10.2 |  | 9.7 wt %
COC(=O)CC(C)=O [Methyl acetoacetate] | 8.9 |  | 46.0 wt %
CCOC [Methyl ethyl ether] | 6.2 |  | ≥ 5.0 wt %
CC(=O)C=O [Methylglyoxal] |  |  | ≥ 40.0 wt %
CCC=O [Propion aldehyde] |  |  | 20.0 wt %
CCOCC(C)OC(C)=O (stereo not shown) [Propylene glycol monoethyl ether acetate] | 9.0 |  | ≥ 5.0 wt %
COC(C)COC(C)COC(C)CO (stereo not shown) [Tripropylene glycol monomethyl ether] | 10.4 |  | any

More lines, now with the values ahead:

δH [1] | Organic solvent δH [1] | Saturation solubility [2] | Compound
4.7 |  | 5.0 wt % | CCC(=O)CC [Diethyl ketone]
8.6 |  | 32.3 wt % | COCOC [Dimethoxymethane]
5.7 |  | 32.8 wt % | COC [Dimethyl ether]
8.0 |  | 12.0 wt % | COC(C)COC(C)COC(C)=O (stereo not shown) [Dipropylene glycol monomethyl ether acetate]
7.2 |  |  | CCOC(C)=O [Ethyl acetate]
7.6 |  | 25.0 wt % | COC(C)=O [Methyl acetate]
10.5 |  | any | CCOCC(C)O (stereo not shown) [Propylene glycol monoethyl ether]
9.8 | 9.0 | 19.0 wt % | COCC(C)OC(C)=O (stereo not shown) [Propylene glycol monomethyl ether acetate]
11.6 | 10.5 |  | COCC(C)O (stereo not shown) [Propylene glycol monomethyl ether]
16.4 | 16.4 |  | CC(C)O [isopropyl alcohol, reference compound]
